Like-named read-outs stand apart in the source and are kept apart here.
Assays:
[1] = subcutaneous, 1.5 mM; cited from earlier work
[2] = cited from earlier work
OP2 (κ) = molecular target: T1, OP2 (κ) (Homo sapiens, UniProt P41145); assay: GTPγS assay; assay type: biochemical; conditions: antagonism
T1 construct: expressed in transfected cells; host or cells: CHO-K1 (membrane extracts)
Procedure: (§1) Additional receptor agonist/agonist activity assessments were performed using the 8′-OH DHE test compound. Table 12 contains a summary of the cell lines (CHO-K1/HEK293 transfected with relevant human receptor) and the assays performed to detect any agonist or antagonist activity.
Reagents used were the following: Assay buffer (20 mM HEPES, pH 7.4; 100 mM NaCl; 10 mg/mL saponin; 30 mM MgCl2); Membranes (recombinant human receptor membrane extracts were thawed on ice and diluted in assay buffer to give […] (10 μgμL) and kept on ice); GDP (diluted in assay buffer to give 30 μM solution (3 μM final concentration); beads (PVT-WGA (Amersham, RPNQ001), diluted in assay buffer at 25 mg/mL (0.25 mg/10 μL)); GTPγ^35S (Perkin Elmer, NEG030X), diluted in assay buffer to give 0.1 nM (final concentration); and ligand (agonist/antagonist diluted in assay buffer).
Membranes were mixed with GDP (1:1) and incubated for at least 15 minutes on ice. In parallel, GTPγ^35S was mixed with the beads (1:1) just before starting the reaction. […] The plates were then centrifuged for 10 minutes at 2,000 rpm and incubated at RT for 1 hour and counted for 1 min/well with a Perkin Elmer TopCount reader.

[3] = system: Purinergic (P2X1/P2X2/P2X3/P2X4/P2X7); assay: Purinergic receptor QPatch patch clamp (agonist/antagonist); assay type: cell-based, human; conditions: P2X receptors, 30 and 100 μM
Procedure: Purinergic receptor studies were conducted to monitor activity of 8′-OH DHE against the P2X1, P2X2, P2X3, P2X4 and P2X7 receptors. Human recombinant purinergic receptor-expressing HEK293 cells were used, and receptor activity was evaluated at RT using QPatch HT® (Sophion Bioscience A/S, Denmark) automatic parallel patch clamp system. The test 8′-OH DHE compound was evaluated in both agonist and antagonist modes at 30 and 100 μM. Each concentration was tested in triplicate.

Calcitonin (CGRP) = molecular target: T2, Calcitonin (CGRP) (Homo sapiens, UniProt O60894+Q16602); assay: Aequorin assay; assay type: cell-based; conditions: CGRP receptor
T2 construct: expressed in transfected cells; host or cells: CHO-K1 with apoaequorin (CHO-AEQ)
T2 sequence (Q16602 23-461): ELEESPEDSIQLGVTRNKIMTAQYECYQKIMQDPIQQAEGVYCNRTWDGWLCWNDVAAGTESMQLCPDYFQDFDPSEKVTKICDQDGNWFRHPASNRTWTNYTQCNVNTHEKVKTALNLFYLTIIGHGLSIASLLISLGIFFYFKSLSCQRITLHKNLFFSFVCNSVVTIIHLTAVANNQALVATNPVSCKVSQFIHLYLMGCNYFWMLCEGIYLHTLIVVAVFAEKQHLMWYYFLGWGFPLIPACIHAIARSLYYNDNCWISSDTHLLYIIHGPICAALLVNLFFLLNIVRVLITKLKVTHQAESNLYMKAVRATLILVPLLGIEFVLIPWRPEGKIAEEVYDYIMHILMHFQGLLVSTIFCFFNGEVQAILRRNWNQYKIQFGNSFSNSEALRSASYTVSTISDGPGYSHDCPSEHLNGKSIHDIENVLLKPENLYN
T2 sequence (O60894 27-148 partner): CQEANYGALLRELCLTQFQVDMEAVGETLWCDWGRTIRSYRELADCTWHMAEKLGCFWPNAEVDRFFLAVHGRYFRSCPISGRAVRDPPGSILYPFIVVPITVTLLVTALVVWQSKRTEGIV
Procedure: as §1
Aequorin assays were conducted to monitor activity for 8′-OH DHE against the receptors indicated in Table 12 above (except for mGlu3 and mGlu5). CHO-K1 cells co-expressing mitochondrial apoaequorin and the recombinant human receptor of interest were grown to mid-log phase in culture media without antibiotics and then detached with PBS-EDTA, centrifuged and resuspended in assay buffer (DMEMHAM's F12 with HEPES, without phenol red+0.1% BSA, protease free) at a concentration of 1×10^6 cell/mL. Cells were incubated at RT for at least 4 hours with coelenterazine h. […]
50 μL of the cell suspension was mixed with 50 μL of test or reference agonist in a 96-well plate. The resulting emission of light was recorded using Hamamatsu Functional Drug Screening System 6000 (FDSS 6000) luminometer. […] The resulting emission of light was recorded using the FDSS 6000 luminometer. To standardize the emission of recorded light (and determine of the ‘100% signal’) across plates and across different experiments, some wells contained 100 μM digitonin or a saturating concentration of ATP (20 μM).

Orexin (OX1/OX2) = assay: Aequorin assay; assay type: cell-based, human; conditions: Orexin receptors
Procedure: as §1
(§2) Aequorin assays were conducted to monitor activity for 8′-OH DHE against the receptors indicated in Table 12 above (except for mGlu3 and mGlu5). CHO-K1 cells co-expressing mitochondrial apoaequorin and the recombinant human receptor of interest were grown to mid-log phase in culture media without antibiotics and then detached with PBS-EDTA, centrifuged and resuspended in assay buffer (DMEMHAM's F12 with HEPES, without phenol red+0.1% BSA, protease free) at a concentration of 1×10^6 cell/mL. Cells were incubated at RT for at least 4 hours with coelenterazine h. Reference agonistant/agonist was tested to evaluate the performance of the assay and to determine EC50/IC50.
(§3) 50 μL of the cell suspension was mixed with 50 μL of test or reference agonist in a 96-well plate. The resulting emission of light was recorded using Hamamatsu Functional Drug Screening System 6000 (FDSS 6000) luminometer. For antagonist testing, 100 μL of the reference agonist at its EC80 was injected on the mix of cells and test compound, following an incubation of 15 minutes after the first injection. The resulting emission of light was recorded using the FDSS 6000 luminometer. To standardize the emission of recorded light (and determine of the ‘100% signal’) across plates and across different experiments, some wells contained 100 μM digitonin or a saturating concentration of ATP (20 μM).

[4] = system: Cholecystokinin (CCK1/CCK2); assay: Aequorin assay; assay type: cell-based, human; conditions: CCK receptors
Procedure: as §1, §2, §3

[5] = system: VIP/PACAP (PAC1/VPAC1/VPAC2); assay: Aequorin assay; assay type: cell-based, human; conditions: VIP/PACAP receptors
Procedure: as §1, §2, §3

Neurokinin (NK1/NK2/NK3) = assay: Aequorin assay; assay type: cell-based, human; conditions: Neurokinin receptors
Procedure: as §1, §2, §3

T1 sequence (P41145 whole entry): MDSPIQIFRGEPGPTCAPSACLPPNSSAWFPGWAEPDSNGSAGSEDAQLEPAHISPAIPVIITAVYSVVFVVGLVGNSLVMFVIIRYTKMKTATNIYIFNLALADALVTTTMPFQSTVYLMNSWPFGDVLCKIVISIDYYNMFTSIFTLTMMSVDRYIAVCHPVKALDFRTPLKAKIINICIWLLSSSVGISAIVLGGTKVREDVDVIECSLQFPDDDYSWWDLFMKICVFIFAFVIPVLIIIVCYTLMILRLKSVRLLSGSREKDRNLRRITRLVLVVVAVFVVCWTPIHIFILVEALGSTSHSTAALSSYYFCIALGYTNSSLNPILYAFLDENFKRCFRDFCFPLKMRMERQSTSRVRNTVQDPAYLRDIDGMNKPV

| Compound | nausea, share of treated patients [1] | fraction of dose extracted in the urine ([2]; IM administered dose) | bioavailability ([2]; IM) | bioavailability ([2]; IN administration) | oral bioavailability ([2]; oral) | IC50 (OP2 (κ)) | Activity (Agonism: EC50; Antagonism: IC50) [3] | Activity (Agonism: EC50; Antagonism: IC50) (Calcitonin (CGRP)) | Activity (Agonism: EC50; Antagonism: IC50) (Orexin (OX1/OX2)) | Activity (Agonism: EC50; Antagonism: IC50) [4] | Activity (Agonism: EC50; Antagonism: IC50) [5] | Activity (Agonism: EC50; Antagonism: IC50) (Neurokinin (NK1/NK2/NK3)) |
| --- | --- | --- | --- | --- | --- | --- | --- | --- | --- | --- | --- | --- |
| CN1C[C@H](C(=O)N[C@]2(C)O[C@@]3(O)[C@@H]4CCCN4C(=O)[C@H](Cc4ccccc4)N3C2=O)C[C@@H]2c3cccc4[nH]cc(c34)C[C@H]21 [DHE, Dihydroergotamine] | ~16% | 6-7% | 100% | about 40% | 1-3% | – | – | – | – | – | – | – |
| CN1C[C@H](C(=O)N[C@]2(C)O[C@@]3(O)[C@@H]4CCC(O)N4C(=O)[C@H](Cc4ccccc4)N3C2=O)C[C@@H]2c3cccc4[nH]cc(c34)C[C@H]21 (stereo partly drawn) [8′-OH DHE, 8′-Hydroxy-Dihydroergotamine] | – | – | – | – | – | > 1000 nM | Inactive | Inactive | Inactive | Inactive | Inactive | Inactive |

From patent US20150306096A1, “8'-HYDROXY-DIHYDROERGOTAMINE COMPOUNDS AND COMPOSITIONS” (MAP Pharmaceuticals, Inc., priority 2012, published 2015)
